Data from patent US10508077B2 (FORMA Therapeutics, Inc., priority 2015, dated 2019).

Molecular target: T1, Full length human recombinant HDAC8 protein (Homo sapiens, UniProt Q9BY41)
T1 construct: Full length human recombinant HDAC8 protein was expressed in baculoviral system; made in house
T1 sequence (Q9BY41 1-377): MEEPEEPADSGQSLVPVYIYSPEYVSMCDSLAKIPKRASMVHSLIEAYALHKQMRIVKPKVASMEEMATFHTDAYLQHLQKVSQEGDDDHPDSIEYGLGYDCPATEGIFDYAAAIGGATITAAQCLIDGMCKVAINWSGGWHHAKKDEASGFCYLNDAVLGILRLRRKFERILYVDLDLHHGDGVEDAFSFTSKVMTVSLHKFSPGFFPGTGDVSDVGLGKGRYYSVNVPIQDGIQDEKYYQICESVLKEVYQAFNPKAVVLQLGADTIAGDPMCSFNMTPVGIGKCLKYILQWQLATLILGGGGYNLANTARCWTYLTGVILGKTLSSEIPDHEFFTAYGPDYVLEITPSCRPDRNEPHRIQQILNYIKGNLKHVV
Test: In vitro histone deacetylase assay: enzymatic HDAC8 assay, electrophoretic mobility shift
Type: biochemical
Conditions: substrate RHKK(Ac)-NH2, 1 nM enzyme, compounds listed under IC50 range headings
Description: The enzymatic HDAC8 assay was performed using electrophoretic mobility shift assay. Full length human recombinant HDAC8 protein was expressed in baculoviral system and purified by affinity chromatography. The enzymatic reactions were assembled in 384 well plates in a total volume of 25 μL in a reaction buffer composing: 100 mM HEPES, pH7.5, 25 mM KC, 0.1% bovine serum albumin, 0.01% Triton X-100, 1% DMSO (from compounds) 2 μM of the fluorescently labeled peptide substrate and enzyme. The enzyme was added at a final concentration of 1 nM. The peptide substrate RHKK(Ac)-NH2 was used. The compounds were tested at 12 concentrations spaced by 3× dilution intervals. Negative control samples (0%-inhibition in the absence of inhibitor) and positive control samples (100%-inhibition) were assembled in replicates of four in each assay plate. The reactions were incubated at 25° C. and quenched by the addition of 45 μL of termination buffer (100 mM HEPES, pH 7.5, 0.01% Triton X-100, 0.05% SDS).
The terminated assay plates were analyzed on LabChip® 3000 microfluidic electrophoresis instrument (Perkin Elmer/Caliper Life Sciences). The fluorescence intensity of the electrophoretically separated de-acetylated product and substrate peptide was measured. Activity in each sample was determined as the product to sum ratio (PSR): P/(S+P), where P is the peak height of the product peptide and S is the peak height of the substrate peptide. Percent inhibition (Pinh) is determined using the following equation: Pinh=(PSR0%−PSRinh)/(PSR0%−PSR100%)*100, where PSRinh is the product sum ratio in the presence of inhibitor, PSR0% is the average product sum ration in the absence of inhibitor and PSR 100% is the average product sum ratio in 100%-inhibition control samples. The IC50 values of inhibitors were determined by fitting the %-inhibition curves with 4 parameter dose-response model using XLfit 4 software. Ranges of IC50 values for compounds of the invention are disclosed in Table 26.

| Structure (SMILES) | IC50 |
| --- | --- |
| CC(C)(C)OC(=O)N1CCC2(CC1)CCN(c1ccccc1/C=C/C(=O)NO)C2 [Example I-111, tert-butyl (E)-2-(2-(3-(hydroxyamino)-3-oxoprop-1-en-1-yl)phenyl)-2,8-diazaspiro[4.5]decane-8-carboxylic] | < 1 µM |
| CC(C)(C)OC(=O)N1CCC2(CCN(c3ccccc3/C=C/C(=O)NO)C2)C1 (stereo not shown) [Example I-112, tert-butyl (E)-7-(2-(3-(hydroxyamino)-3-oxoprop-1-en-1-yl)phenyl)-2,7-dizazspiro[4.4]nonane-2-carboxylate] | < 1 µM |
| O=C(/C=C/c1ccccc1N1CC2(CC(NC(=O)OCc3ccccc3)CS2(=O)=O)C1)NO (stereo not shown) [Example I-114, benzyl (E)-(2-(2-(3-(hydroxyamino)-3-oxoprop-1-en-1-yl)phenyl)-5,5-dioxido-5-thia-2-azaspiro[3,4]octan-7-yl)carbamate] | < 1 µM |
| O=C(/C=C/c1ccccc1NCc1nc2ccc(CCCO)cc2[nH]1)NO [Example I-116, (E)-N-hydroxy-3-(2-(((6-(3-hydroxypropyl)-1H-benzo[d]imidazol-2-yl)methyl)amino)phenyl)acrylamide] | < 1 µM |
| NC1CC2(CN(c3ccccc3/C=C/C(=O)NO)C2)S(=O)(=O)C1 (stereo not shown) [Example I-117, (E)-3-(2-(7-amino-5,5-dioxido-5-thia-2-azaspiro[3.4]octan-2-yl)phenyl)-N-hydroxyacrylamide 2,2,2-trifluoroacetate] | < 1 µM |
| CC(C)N(C(=O)c1cccc(C(F)(F)F)c1)c1ccccc1/C=C/C(=O)NO [Example I-118, (E)-N-(2-(3-(hydroxyamino)-3-oxoprop-1-en-1-yl)phenyl)-N-isopropyl-3-(trifluoromethyl)benzamide] | < 1 µM |
| CN(Cc1cccc(C(F)(F)F)c1)c1ccccc1/C=C/C(=O)NO [Example I-119, (E)-N-hydroxy-3-(2-(methyl(3-(trifluoromethyl)benzyl)amino)phenyl)acrylamide] | < 1 µM |
| O=C(/C=C/c1ccccc1NCc1ccc(-c2ccccc2)c(C(F)(F)F)c1)NO [Example I-120, (E)-N-hydroxy-3-(2-(((2-(trifluoromethyl)-[1,1′-biphenyl]-4-yl)methyl)amino)phenyl)acrylamide] | < 1 µM |
| Cn1c(CNc2ccccc2/C=C/C(=O)NO)nc(Cl)c1Cl [Example I-121, (E)-3-(2-(((4,5-dichloro-1-methyl-1H-imidazol-2-yl)methyl)amino)phenyl)-N-hyroxyacrylamide] | < 1 µM |
| O=C(/C=C/c1cccnc1NC(=O)c1cccc(C(F)(F)F)c1)NO [Example I-122] | < 1 µM |
| O=C(/C=C/c1ncccc1NC(=O)c1cccc(C(F)(F)F)c1)NO [Example I-124, (E)-N-(2-(3-(hydroxyamino)-3-oxoprop-1-en-1-yl)pyridin-3-yl)-3-(trifluoromethyl)benzamide] | < 1 µM |
| CCCCC(=O)NC1CCN(c2ccccc2/C=C/C(=O)NO)CC1 [Example I-125, (E)-N-(1-(2-(3-(hydroxyamino)-3-oxoprop-1-en-1-yl)phenyl)piperidin-4-yl)pentanamide] | < 1 µM |
| O=C(/C=C/c1ccccc1N1CCC(NC(=O)C2CCCCC2)CC1)NO [Example I-126, (E)-N-(1-(2-(3-(hydroxyamino)-3-oxoprop-1-en-1-yl)phenyl)piperidin-4-yl)cyclohexanecarboxamide] | < 1 µM |
| CS(=O)(=O)N1CCCC(C(=O)NC2CCN(c3ccccc3/C=C/C(=O)NO)CC2)C1 (stereo not shown) [Example I-127] | < 1 µM |
| O=C(/C=C/c1ccccc1N1CCC(NC(=O)Cc2cccs2)CC1)NO [Example I-128, (E)-N-hydroxy-3-(2-(4-(2-(thiophen-2-yl)acetamido)piperidin-1-yl)phenyl)acrylamide] | < 1 µM |
| O=C(/C=C/c1ccccc1N1CCC(NC(=O)CSc2ccc(F)cc2)CC1)NO [Example I-129, (E)-3-(2-(4-(2-((4-fluorophenyl)thio)acet-amido)piperidin-1-yl)phenyl)-N-hydroxyacrylamide] | < 1 µM |
